In brackets after ≈: the same amount, converted by molar mass. Like-named read-outs stand apart in the source and are kept apart here.
Columns and labels:
[1] = system: E. coli JW55031 (TolC Mutant); experiment: MIC/MBC (CLSI broth microdilution) against E. coli TolC mutant; type: cell-based; settings: Escherichia coli
Description: (§1) The minimum inhibitory concentrations (MICs) of the tested compounds and control drugs, linezolid, vancomycin, and gentamicin, were determined using the broth microdilution method according to the guidelines outlined by the Clinical and Laboratory Standards Institute (CLSI) against clinically relevant bacterial (Staphylococcus aureus, MRSA, Escherichia coli, Enterococcus faecalis and Enterococcus faecium strains. S. aureus, MRSA, E. coli, Enterococcus faecalis and Enterococcus faecium were grown aerobically overnight on tryptone soy agar (TSA) plates at 37° C. Afterwards, a bacterial solution equivalent to 0.5 McFarland standard was prepared and diluted in cation-adjusted Mueller–Hinton broth (CAMHB) (for S. aureus, MRSA, and E. coli) to achieve a bacterial concentration of about 5 × 10^5 CFU/mL. Enterococcus faecalis and Enterococcus faecium 0.5 McFarland standard solution was diluted in tryptone soy broth (TSB) to achieve a bacterial concentration of about 5 × 10^5 CFU/mL. Compounds and control drugs were added in the first row of 96-well plates and serially diluted with the corresponding media containing bacteria. Plates were then incubated as previously described. […] The minimum bactericidal concentration (MBC) was tested by spotting 4 µL from wells with no growth onto TSA plates. Plates were incubated at 37 ° C for at least 18 h before recording the MBC. The MBC was categorized as the lowest concentration that reduced bacterial growth by 99.9% [45, 46, 47].

VRE. faecalis ATCC 51299 = experiment: MIC/MBC (CLSI broth microdilution) against VRE faecalis ATCC 51299; type: cell-based; settings: Enterococcus
Description: as §1

E. faecalis ATCC 29212 = experiment: MIC/MBC (CLSI broth microdilution) against E. faecalis ATCC 29212; type: cell-based; settings: Enterococcus faecalis, ATCC29212
Description: as §1

VRE. faecium ATCC 700221 = experiment: MIC/MBC (CLSI broth microdilution) against VRE faecium ATCC 700221; type: cell-based; settings: Enterococcus
Description: as §1

[2] = system: E. coli BW25113 (wild-type strain); experiment: MIC/MBC (CLSI broth microdilution) against E. coli BW25113 wild type; type: cell-based, Escherichia coli; settings: Escherichia coli
Description: as §1

S. aureus ATCC 25923 = experiment: MIC/MBC (CLSI broth microdilution) against S. aureus ATCC 25923; type: cell-based; settings: Staphylococcus aureus, ATCC25923
Description: as §1

[3] = system: L. monocytogenes ATCC 19115; experiment: MIC/MBC (CLSI broth microdilution) against L. monocytogenes ATCC 19115; type: cell-based; settings: Listeria monocytogenes, ATCC19115
VRE. faecalisATCC 51575 = experiment: MIC/MBC (CLSI broth microdilution) against VRE faecalis ATCC 51575; type: cell-based; settings: Enterococcus
Description: as §1

MRSA USA300 = experiment: MIC/MBC (CLSI broth microdilution) against MRSA USA300; type: cell-based, methicillin-resistant Staphylococcus aureus; settings: Staphylococcus aureus
Description: as §1

N. gonorrhoeae 165 = experiment: MIC/MBC against N. gonorrhoeae clinical isolate 165; type: cell-based; settings: Neisseria gonorrhoeae
Description: (§2) Briefly, bacteria were grown overnight on chocolate agar II at 37° C in the presence of 5% CO2. Afterwards, a bacterial suspension equivalent to 1.0 McFarland standard was prepared and diluted in brucella broth supplemented with yeast extract, neopeptone, hematin, pyridoxal, and NAD. Test agents were added in the first row of the 96-well plates and serially diluted along the plates. Plates were then incubated at 37° C in the presence of 5% CO2 for 24 h. […] Plates were then incubated at 37 ° C in the presence of 5% CO2 for 24 h. The MBC was categorized as the lowest concentration that reduced bacterial growth by 99.9% [45, 46, 47].

N. gonorrhoeae 194 = experiment: MIC/MBC against N. gonorrhoeae clinical isolate 194; type: cell-based; settings: Neisseria gonorrhoeae
Description: as §2

N. gonorrhoeae WHO L = experiment: MIC/MBC against N. gonorrhoeae WHO L reference strain; type: cell-based; settings: Neisseria gonorrhoeae
Description: as §2

N. gonorrhoeae 197 = experiment: MIC/MBC against N. gonorrhoeae clinical isolate 197; type: cell-based; settings: Neisseria gonorrhoeae
Description: as §2

[4] = system: N. gonorrhoeae strain 181; experiment: MIC by broth microdilution against N. gonorrhoeae strain 181; type: cell-based, Neisseria gonorrhoeae; settings: Neisseria gonorrhoeae; N. gonorrhoeae strain 181; read-out: MIC
Description: as §2

N. gonorrhoeae 166 = experiment: MIC/MBC against N. gonorrhoeae clinical isolate 166; type: cell-based; settings: Neisseria gonorrhoeae
Description: as §2

N. gonorrhoeae 200 = experiment: MIC/MBC against N. gonorrhoeae clinical isolate 200; type: cell-based; settings: Neisseria gonorrhoeae
Description: as §2

`CC(=O)NC[C@H]1CN(c2ccc(N3CCOCC3)c(F)c2)C(=O)O1` [Linezolid, linezolid, reference compound] gave an MBC [1] of over 64 µg/mL, an MIC [1] of 8 µg/mL (≈ 23.7 µM) and an MBC (VRE. faecalis ATCC 51299; VRE faecalis ATCC 51299, read-out: MBC) of 32 µg/mL (≈ 94.9 µM). The MIC (VRE. faecalis ATCC 51299; VRE faecalis ATCC 51299, read-out: MIC) was 1 µg/mL (≈ 2.96 µM), the MBC (E. faecalis ATCC 29212; E. faecalis ATCC 29212, read-out: MBC) was 64 µg/mL (≈ 190 µM) and the MIC (E. faecalis ATCC 29212; E. faecalis ATCC 29212, read-out: MIC) was 2 µg/mL (≈ 5.93 µM). The MBC (VRE. faecium ATCC 700221; VRE faecium ATCC 700221, read-out: MBC) was 64 µg/mL (≈ 190 µM), the MIC (VRE. faecium ATCC 700221; VRE faecium ATCC 700221, read-out: MIC) was 2 µg/mL (≈ 5.93 µM) and the MBC ([2]; E. coli BW25113 wild-type strain, read-out: MBC) was over 64 µg/mL. It also gave an MIC ([2]; E. coli BW25113 wild-type strain, read-out: MIC) of over 64 µg/mL, an MBC (S. aureus ATCC 25923; S. aureus ATCC 25923, read-out: MBC) of 64 µg/mL (≈ 190 µM) and an MIC (S. aureus ATCC 25923; S. aureus ATCC 25923, read-out: MIC) of 2 µg/mL (≈ 5.93 µM). The MBC ([3]; L. monocytogenes ATCC 19115, read-out: MBC) was 64 µg/mL (≈ 190 µM), the MIC ([3]; L. monocytogenes ATCC 19115, read-out: MIC) was 2 µg/mL (≈ 5.93 µM) and the MBC (VRE. faecalisATCC 51575; VRE faecalis ATCC 51575, read-out: MBC) was 64 µg/mL (≈ 190 µM). For the same molecule, the MIC (VRE. faecalisATCC 51575; VRE faecalis ATCC 51575, read-out: MIC) was 2 µg/mL (≈ 5.93 µM), the MBC (MRSA USA300; MRSA USA300, read-out: MBC) was 16 µg/mL (≈ 47.4 µM) and the MIC (MRSA USA300; MRSA USA300, read-out: MIC) was 1 µg/mL (≈ 2.96 µM).

For `CN(C)[C@@H]1C(O)=C(C(N)=O)C(=O)[C@@]2(O)C(O)=C3C(=O)c4c(O)cccc4[C@@](C)(O)[C@H]3C[C@@H]12` [Tetracycline, tetracycline, reference compound], the MBC (N. gonorrhoeae 165) was 8 µg/mL (≈ 18 µM), the MIC (N. gonorrhoeae 165) was 4 µg/mL (≈ 9 µM) and the MBC (N. gonorrhoeae 194) was 4 µg/mL (≈ 9 µM). The MIC (N. gonorrhoeae 194) was 1 µg/mL (≈ 2.25 µM), the MBC (N. gonorrhoeae WHO L) was 2 µg/mL (≈ 4.5 µM) and the MIC (N. gonorrhoeae WHO L) was 0.5 µg/mL (≈ 1.13 µM). It also gave an MBC (N. gonorrhoeae 197) of 4 µg/mL (≈ 9 µM), an MIC (N. gonorrhoeae 197) of 2 µg/mL (≈ 4.5 µM) and an MIC [4] of 2 µg/mL (≈ 4.5 µM). For the same molecule, the MBC (N. gonorrhoeae 166) was 8 µg/mL (≈ 18 µM), the MIC (N. gonorrhoeae 166) was 2 µg/mL (≈ 4.5 µM) and the MBC (N. gonorrhoeae 200) was 8 µg/mL (≈ 18 µM). It also gave an MIC (N. gonorrhoeae 200) of 2 µg/mL (≈ 4.5 µM).

`CN[C@H](CC(C)C)C(=O)N[C@H]1C(=O)N[C@@H](CC(N)=O)C(=O)N[C@H]2C(=O)N[C@H]3C(=O)N[C@H](C(=O)N[C@H](C(=O)O)c4cc(O)cc(O)c4-c4cc3ccc4O)[C@H](O)c3ccc(c(Cl)c3)Oc3cc2cc(c3O[C@@H]2O[C@H](CO)[C@@H](O)[C@H](O)[C@H]2O[C@H]2C[C@](C)(N)[C@H](O)[C@H](C)O2)Oc2ccc(cc2Cl)[C@H]1O` [Vancomycin, vancomycin, reference compound] showed an MBC [1] of over 64 µg/mL, an MIC [1] of over 64 µg/mL and an MBC (VRE. faecalis ATCC 51299) of over 64 µg/mL. It also gave an MIC (VRE. faecalis ATCC 51299) of over 64 µg/mL, an MBC (E. faecalis ATCC 29212) of 1 µg/mL (≈ 0.69 µM) and an MIC (E. faecalis ATCC 29212) of 1 µg/mL (≈ 0.69 µM). For the same molecule, the MBC (VRE. faecium ATCC 700221) was 32 µg/mL (≈ 22.1 µM), the MIC (VRE. faecium ATCC 700221) was 32 µg/mL (≈ 22.1 µM) and the MBC ([2]; BW25113) was over 64 µg/mL. For the same molecule, the MIC ([2]; BW25113) was over 64 µg/mL, the MBC (S. aureus ATCC 25923) was 1 µg/mL (≈ 0.69 µM) and the MIC (S. aureus ATCC 25923) was 1 µg/mL (≈ 0.69 µM). It also gave an MBC [3] of 1 µg/mL (≈ 0.69 µM), an MIC [3] of 1 µg/mL (≈ 0.69 µM) and an MBC (VRE. faecalisATCC 51575) of over 64 µg/mL. It also gave an MIC (VRE. faecalisATCC 51575) of over 64 µg/mL, an MBC (MRSA USA300) of 2 µg/mL (≈ 1.38 µM) and an MIC (MRSA USA300) of 1 µg/mL (≈ 0.69 µM).
